Data as given in US20180177890A1, “LIGAND-CYTOTOXIC DRUG CONJUGATE, PREPARATION METHOD THEREOF, AND USE THEREOF” (priority 2015, published 2018).
Numbered stars: 1 amine (or outer) side, 2 acyl side, 3 side chain; on linkers, the order of the positions; unused ones are H or OH. Square brackets hold non-standard residues; d marks the D form. Peptide text beside a SMILES is read from it. X1 = CO[C@H]([C@@H](C)C(=O)[*:2])[C@@H]1C[C@@H]2C[C@@H]2N1[*:1]; X2 = CO[C@H]([C@@H](C)C(=O)[*:2])[C@@H]1CC2(CC2)CN1[*:1]; X4 = C=C1C[C@@H]([C@H](OC)[C@@H](C)C(=O)[*:2])N([*:1])C1; Dolaproine = CO[C@@H]([C@@H]1CCCN1)[C@@H](C)C(=O)O; Phe(2,4-Cl2) = N[C@@H](Cc1ccc(Cl)cc1Cl)C(=O)O; Dil = CC[C@H](C)[C@H](NC)[C@@H](CC(=O)O)OC; Phe(3-Cl) = N[C@@H](Cc1cccc(Cl)c1)C(=O)O; Phe(3-F) = N[C@@H](Cc1cccc(F)c1)C(=O)O; Phe(4-Me) = Cc1ccc(C[C@H](N)C(=O)O)cc1; Phe(2-F) = N[C@@H](Cc1ccccc1F)C(=O)O; Phe(2-Me) = Cc1ccccc1C[C@H](N)C(=O)O; 2Thi = N[C@@H](Cc1cccs1)C(=O)O; NMeV = CN[C@H](C(=O)O)C(C)C

Experiments:
HepG2 tumor cells = experiment: In vitro tumor cell proliferation inhibition test (CCK-8), HepG2; format: cell-based; conditions: Homo sapiens, HepG2, 76 hours incubation
Method: (§1) The objective of this experiment is to test the in vitro inhibition effect of the formula (D) according to the present invention on the proliferation of HepG2 tumor cells (human hepatocellular carcinoma cells, Chinese Academy of Sciences cell bank, No. #TCHu 72) and A549 tumor cells (human lung adenocarcinoma, Chinese Academy of Sciences cell bank, No. #TCHu150). The cells were treated with different concentrations of the compound in vitro. After 76 hours incubation, the cell proliferation was detected by CCK-8 reagent (Cell Counting Kit-8, Dojindo, No. CK04), and the activity of the compound in vitro was evaluated according to the IC50 value.
(§2) The following is an example of a method for in vitro proliferation inhibition test of HepG2 cells for the purpose of exemplifying the test of the compounds according to the present invention for the proliferation inhibitory activity on tumor cells in vitro. This method is also applicable to, but not limited to, the in vitro proliferation inhibition tests on other tumor cells.
HepG2 cells in logarithmic growth phase were washed with PBS (phosphate buffer, ThermoFisher) once, and added with 2-3 ml trypsin (0.25% trypsin-EDTA (1×), Gibico, Life Technologies) to digest for 2-3 min. Then, 10-15 ml of cell culture medium (DMEM/F12 medium, Invitrogen; 10% (v/v)) was added after the cells were completely digested. The digested HepG2 cells were eluted, and centrifuged at 1000 rpm for 3 min. The supernatant was discarded, and then 10-20 ml of cell culture medium were added to resuspend the cells to prepare a single cell suspension.
The HepG2 single cell suspension was mixed and the cell density was adjusted to 6×10^4 cells/ml with cell culture medium. The density-adjusted cell suspension was mixed uniformly and added to a 96-well cell culture plate at 100 μl/well. The plates were incubated in a 5% CO2 incubator at 37° C. for 18-20 hours.
(§3) The compound was dissolved with DMSO (dimethylsulfoxide, Shanghai Titan Technology Co., Ltd.) to prepare a storage solution having an initial concentration of 10 mM.
(§4) 10 μl of 10 mM compound was added to the wells of the first column of a U-shaped bottom 96-well plate (sample plate 1), and 90 μl of DMSO was added to each compound sample well of the first column, i.e., the stock solution was diluted 10 times as the starting point. Then, 3-fold gradient dilutions were performed, with each compound concentration […]. The diluent was DMSO solution. 60 μl of 100% DMSO was added to 12th column and 20 μl of 1 mM positive drug control was added to 11th column.
(§5) In a new U-shaped bottom 96-well plate (sample plate 2), each sample from the sample plate 1 was diluted 20 times with the complete medium. Then, in another new U-shaped bottom 96-well plate (sample plate 3), each well sample from the sample plate 2 was subjected to a final 10-fold dilution.
(§6) After the cell pre-culture was completed, the 96-well cell culture plate was removed and the supernatant was discarded. Each sample dilution in the 96-well sample plate 3 was successively added to a 96-well cell culture plate at 100 μl/well. Each compound sample was tested in duplicate at each concentration. […] After completion of the loading operation, the 96-well cell culture plate was incubated at 37° C. for about 76 hours in a 5% CO2 incubator.
(§7) The 96-well cell culture plate was taken and CCK-8 was added to each well at […]. The cell culture plate was gently pat and mixed for more than 10 times and incubated at 37° C. for 2 hours in a 5% CO2 incubator.
(§8) The 96-well cell culture plate was taken and placed in a microplate reader (PerkinElmer, VICTOR 3) and the absorbance at 450 nm was measured using the microplate reader.
(§9) Data was analyzed with Microsoft Excel and Graphpad Prism 5.

A549 tumor cells = experiment: In vitro tumor cell proliferation inhibition test (CCK-8), A549; format: cell-based; conditions: Homo sapiens, A549, 76 hours incubation
Method: as §1, §2, §3, §4, §5, §6, §7, §8
In accordance with the above procedure, the inhibition activity of the compound according to the present invention on the proliferation of A549 tumor cells in vitro was tested. The cell culture medium was also DMEM/F12.
as §9

Compound | IC50 (HepG2 tumor cells) | IC50 (A549 tumor cells)
C=C1C[C@@H]([C@H](OC)[C@@H](C)C(=O)N[C@@H](Cc2ccccc2)C(=O)O)N(C(=O)C[C@@H](OC)[C@H]([C@@H](C)CC)N(C)C(=O)[C@@H](NC(=O)[C@@H](NC)C(C)C)C(C)C)C1 [Compound 9, (S)-2-((2R,3R)-3-((S)-1-((3R,4S,5S)-4-((S)—N,3-dimethyl-2-((S)-3-methyl-2-(methylamino)butanamido)butanamido)-3-methoxy-5-methylheptanoyl)-4-methylenepyrrolidin-2-yl)-3-methoxy-2-methylpropanamido)-3-phenylpropanoic acid] (H-[NMeV]V[Dil][X4]F-OH) | 55 nM | 114 nM
CC[C@H](C)[C@@H]([C@@H](CC(=O)N1CC2(CC2)C[C@H]1[C@H](OC)[C@@H](C)C(=O)N[C@@H](Cc1ccccc1F)C(=O)O)OC)N(C)C(=O)[C@@H](NC(=O)[C@@H](NC)C(C)C)C(C)C [Compound 11, (S)-2-((2R,3R)-3-((S)-5-((3R,4S,5S)-4-((S)—N,3-dimethyl-2-((S)-3-methyl-2-(methylamino)butanamido)butanamido)-3-methoxy-5-methylheptanoyl)-5-azaspiro[2.4]heptan-6-yl)-3-methoxy-2-methylpropanamido)-3-(2-fluorophenyl)propanoic acid] (H-[NMeV]V[Dil][X2][Phe(2-F)]-OH) | 6.6 nM | 27.2 nM
CC[C@H](C)[C@@H]([C@@H](CC(=O)N1CC2(CC2)C[C@H]1[C@H](OC)[C@@H](C)C(=O)N[C@@H](Cc1ccccc1)C(=O)O)OC)N(C)C(=O)[C@@H](NC(=O)[C@@H](NC)C(C)C)C(C)C [Compound 13, (S)-2-((2R,3R)-3-((S)-5-((3R,4S,5S)-4-((S)—N,3-dimethyl-2-((S)-3-methyl-2-(methylamino)butanamido)butanamido)-3-methoxy-5-methylheptanoyl)-5-azaspiro[2.4]heptan-6-yl)-3-methoxy-2-methylpropanamido)-3-phenylpropanoic acid] (H-[NMeV]V[Dil][X2]F-OH) | 11.7 nM | 30.2 nM
CC[C@H](C)[C@@H]([C@@H](CC(=O)N1[C@H]2C[C@H]2C[C@H]1[C@H](OC)[C@@H](C)C(=O)N[C@@H](Cc1ccc(C)cc1)C(=O)O)OC)N(C)C(=O)[C@@H](NC(=O)[C@@H](NC)C(C)C)C(C)C [Compound 15, (S)-2-((2R,3R)-3-((1S,3S,5S)-2-((3R,4S,5S)-4-((S)—N,3-dimethyl-2-((S)-3-methyl-2-(methylamino)butanamido)butanamido)-3-methoxy-5-methylheptanoyl)-2-azabicyclo[3.1.0]hexan-3-yl)-3-methoxy-2-methylpropanamido)-3-(p-tolyl)propanoic acid] (H-[NMeV]V[Dil][X1][Phe(4-Me)]-OH) | 47.5 nM | 75.5 nM
CC[C@H](C)[C@@H]([C@@H](CC(=O)N1[C@H]2C[C@H]2C[C@H]1[C@H](OC)[C@@H](C)C(=O)N[C@@H](Cc1cccs1)C(=O)O)OC)N(C)C(=O)[C@@H](NC(=O)[C@@H](NC)C(C)C)C(C)C [Compound 16, (S)-2-((2R,3R)-3-((1S,3S,5S)-2-((3R,4S,5S)-4-((S)—N,3-dimethyl-2-((S)-3-methyl-2-(methylamino)butanamido)butanamido)-3-methoxy-5-methylheptanoyl)-2-azabicyclo[3.1.0]hexan-3-yl)-3-methoxy-2-methylpropanamido)-3-(thiophen-2-yl)propanoic acid] (H-[NMeV]V[Dil][X1][2Thi]-OH) | 13.9 nM | 53 nM
CC[C@H](C)[C@@H]([C@@H](CC(=O)N1CCC[C@H]1[C@H](OC)[C@@H](C)C(=O)N[C@@H](Cc1ccccc1F)C(=O)O)OC)N(C)C(=O)[C@@H](NC(=O)[C@@H](NC)C(C)C)C(C)C [Compound 25, (S)-2-((2R,3R)-3-((S)-1-((3R,4S,5S)-4-((S)—N,3-dimethyl-2-((S)-3-methyl-2-(methylamino)butanamido)butanamido)-3-methoxy-5-methylheptanoyl)pyrrolidin-2-yl)-3-methoxy-2-methylpropanamido)-3-(2-fluorophenyl)propanoic acid] (H-[NMeV]V[Dil][Dolaproine][Phe(2-F)]-OH) | 175 nM | 200 nM
CC[C@H](C)[C@@H]([C@@H](CC(=O)N1CCC[C@H]1[C@H](OC)[C@@H](C)C(=O)N[C@@H](Cc1ccc(C)cc1)C(=O)O)OC)N(C)C(=O)[C@@H](NC(=O)[C@@H](NC)C(C)C)C(C)C [Compound 29, (S)-2-((2R,3R)-3-((S)-1-((3R,4S,5S)-4-((S)—N,3-dimethyl-2-((S)-3-methyl-2-(methylamino)butanamido)butanamido)-3-methoxy-5-methylheptanoyl)pyrrolidin-2-yl)-3-methoxy-2-methylpropanamido)-3-(p-tolyl)propanoic acid] (H-[NMeV]V[Dil][Dolaproine][Phe(4-Me)]-OH) | 58.6 nM | 1.8 nM
CC[C@H](C)[C@@H]([C@@H](CC(=O)N1CCC[C@H]1[C@H](OC)[C@@H](C)C(=O)N[C@@H](Cc1cccc(Cl)c1)C(=O)O)OC)N(C)C(=O)[C@@H](NC(=O)[C@@H](NC)C(C)C)C(C)C [Compound 31, (S)-3-(3-chlorophenyl)-2-((2R,3R)-3-((S)-1-((3R,4S,5S)-4-((S)—N,3-dimethyl-2-((S)-3-methyl-2-(methylamino)butanamido)butanamido)-3-methoxy-5-methylheptanoyl)pyrrolidin-2-yl)-3-methoxy-2-methylpropanamido)propanoic acid] (H-[NMeV]V[Dil][Dolaproine][Phe(3-Cl)]-OH) | 100 nM | 130 nM
CC[C@H](C)[C@@H]([C@@H](CC(=O)N1CCC[C@H]1[C@H](OC)[C@@H](C)C(=O)N[C@@H](Cc1cccc(F)c1)C(=O)O)OC)N(C)C(=O)[C@@H](NC(=O)[C@@H](NC)C(C)C)C(C)C [Compound 32, (S)-2-((2R,3R)-3-((S)-1-((3R,4S,5S)-4-((S)—N,3-dimethyl-2-((S)-3-methyl-2-(methylamino)butanamido)butanamido)-3-methoxy-5-methylheptanoyl)pyrrolidin-2-yl)-3-methoxy-2-methylpropanamido)-3-(3-fluorophenyl)propanoic acid] (H-[NMeV]V[Dil][Dolaproine][Phe(3-F)]-OH) | 17.4 nM | 13.5 nM
CC[C@H](C)[C@@H]([C@@H](CC(=O)N1CCC[C@H]1[C@H](OC)[C@@H](C)C(=O)N[C@@H](Cc1ccc(Cl)cc1Cl)C(=O)O)OC)N(C)C(=O)[C@@H](NC(=O)[C@@H](NC)C(C)C)C(C)C [Compound 33, (S)-3-(2,4-dichlorophenyl)-2-((2R,3R)-3-((S)-1-((3R,4S,5S)-4-((S)-N,3-dimethyl-2-((S)-3-methyl-2-(methylamino)butanamido)butanamido)-3-methoxy-5-methylheptanoyl)pyrrolidin-2-yl)-3-methoxy-2-methylpropanamido)propanoic acid] (H-[NMeV]V[Dil][Dolaproine][Phe(2,4-Cl2)]-OH) | 4.66 nM | 5 nM
CC[C@H](C)[C@@H]([C@@H](CC(=O)N1CCC[C@H]1[C@H](OC)[C@@H](C)C(=O)N[C@@H](Cc1ccccc1C)C(=O)O)OC)N(C)C(=O)[C@@H](NC(=O)[C@@H](NC)C(C)C)C(C)C [Compound 34, (S)-2-((2R,3R)-3-((S)-1-((3R,4S,5S)-4-((S)—N,3-dimethyl-2-((S)-3-methyl-2-(methylamino)butanamido)butanamido)-3-methoxy-5-methylheptanoyl)pyrrolidin-2-yl)-3-methoxy-2-methylpropanamido)-3-(o-tolyl)propanoic acid] (H-[NMeV]V[Dil][Dolaproine][Phe(2-Me)]-OH) | 18.3 nM | 32.3 nM
